The values below are quoted from earlier work in patent US20200330541A1, “COMPOSITIONS AND METHODS FOR MODULATING ENDOTHELIAL CELL MIGRATION AND ANGIOGENESIS” (University of Maine System Board of Trustees, priority 2017, published 2020).

The conditions of data set [1]: healthy humans after consumption of black currant.
For a further data set, the system named is endothelial cell. Conditions: through the JAK/STAT3 and MAPK signaling pathways.
For another data set, the system named is RAC1. Conditions: smooth muscle cells, 24 hour exposure at 1 μmol/L and 100 μmol/L, compared to untreated cells.
A further data set has as its system HUVEC. The following applies: 200 μM, 100 μM, and 50 μM.

For the molecule `C[C@@H]1O[C@@H](OC[C@H]2O[C@@H](Oc3cc4c(O)cc(O)cc4[o+]c3-c3cc(O)c(O)c(O)c3)[C@H](O)[C@@H](O)[C@@H]2O)[C@H](O)[C@H](O)[C@H]1O` [D3R, delphinidin, 3-O-β-rutinoside], the “concentration in the plasma” value in data set [1] was 73.7 ± 35.0 nM.
In the case of `O=c1cc(-c2ccc(O)cc2)oc2cc(O)cc(O)c12` [apigenin], in the data set on endothelial cell, the “endothelial cell migration, proliferation, and tubulogenesis” value was “inhibited”.
With `O=C(O)/C=C/c1ccc(O)c(O)c1` [caffeic acid], in the data set on RAC1, the RAC1 protein synthesis entry is on record as “significantly decreased”.
`O=c1oc2c(O)c(O)cc3c(=O)oc4c(O)c(O)cc1c4c23` [ellagic acid]: the “endothelial cell migration, proliferation, and tubulogenesis” value in the data set with endothelial cell is given as “inhibited”.
On to `OC[C@H]1O[C@@H](Oc2cc3c(O)cc(O)cc3[o+]c2-c2ccc(O)cc2)[C@H](O)[C@@H](O)[C@@H]1O` [pelargonidin-3-glucoside], for which the “cell proliferation and smooth muscle cell migration” value with smooth muscle cell is “inhibitory effect”.
As for “Delph inidin-3-(p-coumaroylrutinoside)-5-glucoside [nasunin]”, the HUVEC proliferation rate entry in the data set with HUVEC is recorded as “inhibit”.
For epigallocatechin-3 gallate, the “endothelial cell migration, proliferation, and tubulogenesis” value with endothelial cell is given as “inhibited”.
